What all share (format): in vivo, rat
The subject of one data set is SNL rats. Put plainly: Behavioural assessment of the neuropathic state: paw withdrawal to von Frey filaments and acetone. Particulars: for Paw Withdrawal Frequency (PWD), 2 g vF Filament / Paw Withdrawal Frequency (PWD), 6 g vF Filament / Paw Withdrawal Frequency (PWD), Cooling Acetone: mean ± S.E. The source says:
A model of experimental neuropathic pain with symptoms of allodynia and hyperalgesia was established by tightly ligating the L5 and L6 spinal nerves as previously described (Kim and Chung, 1992). Within a sterile theatre, rats weighing approximately 130-150 g were anaesthetised (1:1 O2:N2O, 3% halothane for induction, 1% maintenance) and following a small left-side incision at approximately L4-S2, paraspinal muscle and fat was removed from spinous processes. Part of the L6 traverse process was clipped with rangeurs to expose the parallel-lying L4 and L5 spinal nerves. The L5 nerve was isolated and hooked with a finely-pulled glass rod and tightly tied with non-absorbable 6-0 silk thread distal to the dorsal root ganglion (and proximal to the formation of the sciatic nerve). The L6 nerve was then hooked from under the sacrum and tied in a similar way. Haemostasis was confirmed and the wound was sutured with 3-0 absorbable silk. The surrounding skin was pulled together and secured over the injury with wound clips. Rats recovered in an incubator, and once it had been confirmed that they had no observable motor impairment in their left hindpaw, were re-housed in cages as above. Sham surgery was performed in the same environment and under the same conditions except nerves were not hooked or ligated.
On post-operative days 2, 7, 9 and 14, behavioural signs of punctate mechanical and cooling hypersensitivity were assessed in the left ipsilateral hindpaw relative to the right contralateral hindpaw in awake and alert rats. Rats were individually placed in clear acrylic cubes on an elevated floor of wire mesh, and following a period of acclimation (30 minutes), mechanical sensitivities were determined by paw withdrawal to von Frey (vF) filaments with bending forces 2 g and 6 g (tested in consecutive, ascending force). Each filament was applied to the plantar surface of the paw for ˜2-3 s with enough force to cause buckling, and for each animal this was repeated 10 times at set positions on each paw. […] Cold hypersensitivity was assessed by applying a drop of acetone to each paw 5 times during each testing period, with each application separated by an interval of at least 5 minutes. Withdrawal frequency was quantified as =(number of foot withdrawals/10 or 5 trials as appropriate).

Data set [1] has as its system spinal dorsal horn neurones in SNL rats. As to the kind of experiment: Electrophysiology: mechanical, heat and brush evoked dorsal horn neural responses. Particulars: mean ± S.E. As to the method:
Electrophysiology experiments were conducted on post-operative days 14-17 in anaesthetised rats.
We recorded the evoked responses of dorsal horn lamina V-VI neurones to stimulation of the peripheral receptive field with: • a train of 16 electrical pulses at 3×C-fibre threshold • mechanical von Frey filaments of increasing force—vf 2 g, 8 g, 26 g and 60 g applied to the centre of the receptive field for 10 seconds • heat—40, 45 and 48° C. applied to the centre of the receptive field by a constant water jet for 10 seconds
Following 3 stable baseline responses, 0.03 mg/kg Palonosetron and 0.10 mg/kg Netupitant were administered into the scruff of the neck by subcutaneous injection. Drug effects were followed for two hours with tests carried out at 10, 30, 50, 70, 90 and 110 minutes post injection.

The next data set deals with SNL and Sham rats. Put plainly: Rotarod motor performance. Particulars: FIG. 3, 0.03, 0.3 and 3 mg/kg. The text has this: The rotarod was also used to assess potential effects on motor performance of Netupitant and Palonosetron. Acceleration of the rotarod was set to increase from 0 to 20 revolutions per minute over the period of one minute. Due to initial, non-linear acceleration, rats were placed on the rotarod locked at a speed of 8 revolutions per minute. The rotarod was then set to accelerate and the latency to fall from the rotarod was timed from this point.

Structures are written as SMILES.

Regarding `Cc1ccccc1-c1cc(N2CCN(C)CC2)ncc1N(C)C(=O)C(C)(C)c1cc(C(F)(F)F)cc(C(F)(F)F)c1` [Netu, 2-[3,5-bis(trifluoromethyl)phenyl]-N,2-dimethyl-N-[4-(2-methylphenyl)-6-(4-methylpiperazin-1-yl)pyridin-3-yl]propanamide], in the data set with SNL rats (FIG. 7, SNL rats, 1 mg/kg), the “effect on behavioral hypersensitivities (withdrawal responses to vF2 g, vF6 g, acetone)” value was “appears to inhibit behavioral hypersensitivities”. In the data set on SNL rats (SNL rats, Netu 0.1 mg/kg s.c.), the “Paw Withdrawal Frequency (PWD), 2 g vF Filament” value came to 4.1 ± 1.0; the “Paw Withdrawal Frequency (PWD), 6 g vF Filament” value was 6.7 ± 1.8; the “Paw Withdrawal Frequency (PWD), Cooling Acetone” value came out at 1.9 ± 0.3. Moreover, in the data set with SNL rats (SNL rats, Netu 1 mg/kg s.c.), the “Paw Withdrawal Frequency (PWD), 2 g vF Filament” value came out at 3.8 ± 1.2; the “Paw Withdrawal Frequency (PWD), 6 g vF Filament” value came to 6.2 ± 1.5; the “Paw Withdrawal Frequency (PWD), Cooling Acetone” value was 2.7 ± 0.5. In the data set with SNL rats (SNL rats, Netu 10 mg/kg s.c.), the “Paw Withdrawal Frequency (PWD), 2 g vF Filament” value was found to be 3.9 ± 1.1; the “Paw Withdrawal Frequency (PWD), 6 g vF Filament” value worked out at 5.9 ± 1.0; the “Paw Withdrawal Frequency (PWD), Cooling Acetone” value is 2.0 ± 0.4. In addition, the “effect in animal models of allodynia/neuropathic pain, agent alone” value in the data set with SNL rats (agent alone) was “zero or minimal effect”. In data set [1] (Netu 0.1 mg/kg s.c.), the “Brush-Evoked, Number of Action Potentials” value worked out at 310 ± 40; the “Heat-Evoked 40° Celsius, Number of Action Potentials” value came to 298 ± 72; the “Heat-Evoked 45° Celsius, Number of Action Potentials” value is reported as 381 ± 82; the “Heat-Evoked 48° Celsius, Number of Action Potentials” value is 495 ± 186. Besides, in data set [1] (Netu 0.1 mg/kg s.c.), the “Mechanically-Evoked 8 g vF Filament, Number of Action Potentials” value was 190 ± 42; the “Mechanically-Evoked 26 g vF Filament, Number of Action Potentials” value is listed as 390 ± 56; the “Mechanically-Evoked 60 g vF Filament, Number of Action Potentials” value is listed as 486 ± 75.

In the case of `Cl.O=C1c2cccc3c2[C@H](CCC3)CN1[C@@H]1CN2CCC1CC2` [Palo, (3aS)-2-[(S)-1-Azabicyclo[2.2.2]oct-3-yl]-2,3,3a,4,5,6-hexahydro-1-oxo-1Hberiz[de]isoquinoline], the “effect on the number of paw withdrawals to vF 2 g, vF 6 g and acetone” value with SNL rats (FIG. 2, seen in the SNL rats only) was “dose related reduction”. Moreover, in the data set on SNL rats (SNL rats, Palo 0.03 mg/kg s.c.), the “Paw Withdrawal Frequency (PWD), 2 g vF Filament” value came to 2.8 ± 0.8; the “Paw Withdrawal Frequency (PWD), 6 g vF Filament” value was 5.2 ± 1.5; the “Paw Withdrawal Frequency (PWD), Cooling Acetone” value is on record as 1.2 ± 0.4. In addition, in the data set with SNL rats (SNL rats, Palo 0.3 mg/kg s.c.), the “Paw Withdrawal Frequency (PWD), 2 g vF Filament” value amounted to 3.1 ± 0.7; the “Paw Withdrawal Frequency (PWD), 6 g vF Filament” value is 4.1 ± 1.3; the “Paw Withdrawal Frequency (PWD), Cooling Acetone” value was 1.2 ± 0.5. Also, in the data set with SNL rats (SNL rats, Palo 3 mg/kg s.c.), the “Paw Withdrawal Frequency (PWD), 2 g vF Filament” value is 1.4 ± 0.6; the “Paw Withdrawal Frequency (PWD), 6 g vF Filament” value is listed as 1.1 ± 0.4; the “Paw Withdrawal Frequency (PWD), Cooling Acetone” value was 1.9 ± 0.3. In data set [1] (Palo 0.03 mg/kg s.c.), the “Brush-Evoked, Number of Action Potentials” value was 144 ± 59; the “Heat-Evoked 40° Celsius, Number of Action Potentials” value is reported as 136 ± 58; the “Heat-Evoked 45° Celsius, Number of Action Potentials” value is listed as 380 ± 187; the “Heat-Evoked 48° Celsius, Number of Action Potentials” value is given as 816 ± 101. Further, in data set [1] (Palo 0.03 mg/kg s.c.), the “Mechanically-Evoked 8 g vF Filament, Number of Action Potentials” value was 211 ± 42; the “Mechanically-Evoked 26 g vF Filament, Number of Action Potentials” value is listed as 539 ± 17; the “Mechanically-Evoked 60 g vF Filament, Number of Action Potentials” value turned out to be 799 ± 192. In the data set on SNL and Sham rats, the “motor performance, total time spent on a rotarod” value is “did not impair motor performance”.

(Values after patent US9358228B2, “Therapeutic combinations of netupitant and palonosetron” (Helsinn Healthcare SA, priority 2011, dated 2016).)
